{"source": "patent US20250177398A1", "about": "“CARBONIC ANHYDRASE ENZYMES FOR REGULATING MAST CELL HEMATOPOIESIS AND TYPE 2 INFLAMMATION” (RUTGERS, THE STATE UNIVERSITY OF NEW JERSEY, priority 2015, published 2025)", "key": {"Aspergillus fumigatus": {"system": "Aspergillus fumigatus", "assay": "Aspergillus fumigatus (FLARE conidia) lung infection", "format": "in vivo, mouse", "details": "A. fumigatus-infected mice, 2-3 mg MZ i.p. daily, 72 hours post-infection (FIGS. 3H-3J)", "experimental": "A. fumigatus strain Af293 was grown on glucose minimal media (GMM) agar plates for 3 days or Sabouraud dextrose agar (SDA) for 7-10 days at 37° C., respectively. Conidia were harvested by adding 0.01% Tween 80 to plates and gently scraping conidia from the plates using a cell scraper. Conidia were then filtered through sterile Miracloth, were washed and resuspended in phosphate buffered saline (PBS), and counted on a hemocytometer. FLARE conidia were prepared as previously described (Espinosa, et al., 2014. PLOS Pathog 10:e1003940). Mice were challenged with 5×10^7 A. fumigatus conidia intratracheally (i.t.) as described previously (Espinosa, et al., 2014. PLOS Pathog 10:e1003940). Mice were treated with vehicle (1:5 DMSO to PBS) or 2-3 mg of MZ i.p. daily and sacrificed 72 hours post-infection. Bronchoalveolar lavage (BAL) fluid was collected by washing the lungs with 2 mL of PBS containing 0.05M EDTA. After collection of the BAL fluid, lung samples were minced in RPMI containing 100 units/mL of collagenase (Gibco) and incubated at 37° C. for 60 minutes, disrupted and filtered. Subsequently, red blood cells were lysed using a Tris ammonium chloride solution. Analysis of neutrophils was conducted using a panel of cell surface markers: CD45, CD11b, and Ly6G as previously described (Espinosa, et al., 2014. PLOS Pathog 10:e1003940). […]"}, "[1]": {"system": "Aspergillus fumigatus-induced allergic airway inflammation", "assay": "Aspergillus fumigatus extract-induced allergic asthma", "format": "in vivo, mouse", "details": "mice challenged intranasally with A. fumigatus extract for 3 weeks, MZ (FIG. 5)", "experimental": "Aspergillus-induced allergic asthma. Mice were challenged with Aspergillus fumigatus allergic extract as previously described (Mathias, C. B., et al., J Immunol 182, 2416-2424 (2009)). Briefly, mice were challenged (intranasally) 3 times a week for 3 weeks with 50 μl of aqueous Aspergillus fumigatus Allergenic Extract (Greer laboratories: item # M3). After 3 weeks mice were sacrificed and BAL and lungs were processed as previously described (Espinosa, V., et al., PLOS Pathog 10, e1003940 (2014))."}}}
{"smiles": "CC(=O)/N=c1/sc(S(N)(=O)=O)nn1C", "note": "[MZ, methazolamide]", "values": [{"measurement": "fungal clearance", "setting": "Aspergillus fumigatus", "value": "increased"}, {"measurement": "neutrophil responses", "setting": "Aspergillus fumigatus", "value": "increased"}, {"measurement": "eosinophilic airway inflammation (eosinophils in BAL and lung)", "setting": "[1]", "value": "significantly reduced"}, {"measurement": "pulmonary mast cell responses", "setting": "[1]", "value": "significantly reduced"}]}
